Results from US3966715A, “Herbicidal agents” (Bayer Aktiengesellschaft, priority 1966, dated 1976).

Key:
[1] = tested on: Chenopodium; experiment: Post-emergence test, Chenopodium; assay type: in vivo; conditions: three weeks
Experimental: (§1) Solvent: 5 parts by weight acetone
(§2) 1 part by weight benzyloxypolyglycol ether
(§3) To produce a suitable preparation of the particular active compound, 1 part by weight of such active compound is mixed with the stated amount of solvent, the stated amount of emulsifier is then added and the resulting concentrate is thereafter diluted with water to the desired final concentration.
(§4) Test plants which have a height of about 5--15 cm. are sprayed with the preparation of the given active compound until just dew moist. After three weeks, the degree of damage to the plants is determined and characterized by the values 0-5, which have the following meaning:
(§5) The procedure of Example 2 is repeated, and the particular active compounds tested, and amounts applied, and the results obtained can be seen from the following Table 2E: […]

[2] = tested on: Stellaria; experiment: Post-emergence test, Stellaria; assay type: in vivo; conditions: three weeks
Experimental: as §1, §2, §3, §4, §5

[3] = tested on: Oats; experiment: Pre-emergence test, oats; assay type: in vivo; conditions: three weeks
Experimental: as §1, §2, §3
(§6) Seeds of the test plants are sown in normal soil and, after 24 hours, watered with the preparation of the given active compound. It is expedient to keep constant the amount of water per unit area. The concentration of the particular active compound in the preparation is of no importance, only the amount of active compound applied per unit area being decisive. After three weeks, the degree of damage to the test plants is determined and characterized by the values 0-5, which have the following meaning:
(§7) The procedure of Example 1 is repeated, and the particular active compounds tested, the amounts applied, and the results obtained can be seen from the following Table 1D: […]

[4] = tested on: Wheat; experiment: Pre-emergence test, wheat; assay type: in vivo; conditions: three weeks
Experimental: as §1, §2, §3, §6, §7

[5] = tested on: Cotton; experiment: Pre-emergence test, cotton; assay type: in vivo; conditions: three weeks
Experimental: as §1, §2, §3, §6, §7

[6] = tested on: Sinapis; experiment: Pre-emergence test, Sinapis; assay type: in vivo; conditions: three weeks
Experimental: as §1, §2, §3, §6, §7

[7] = tested on: Cotton; experiment: Post-emergence test, cotton; assay type: in vivo; conditions: 1.2 Kg/hectare, three weeks
Experimental: as §1, §2, §3, §4, §5

[8] = tested on: Echinochloa; experiment: Post-emergence test, Echinochloa; assay type: in vivo; conditions: three weeks
Experimental: as §1, §2, §3, §4, §5

[9] = tested on: plants and weeds; experiment: General herbicidal activity; assay type: in vivo; conditions: for usefulness as herbicide: compared with compound 221
[10] = tested on: Alternaria; experiment: Fungicidal activity; assay type: in vivo; conditions: particularly against Alternaria
[11] = tested on: nematoeds; experiment: Nematocidal activity on the soil; assay type: in vivo; conditions: 1 Kg/hectare
[12] = tested on: cotton and tomatoes; experiment: Pre-emergence selectivity, cotton and tomatoes; assay type: in vivo; conditions: pre-emergence application
[13] = tested on: corn, potatoes, millet and peanuts; experiment: Use in growing corn, potatoes, millet and peanuts; assay type: in vivo; conditions: 0.3-2 kg/hectare
[14] = Oral toxicity in rats; conditions: rat, in vivo, po
[15] = tested on: rats; experiment: Oral toxicity in rats; conditions: in words
[16] = tested on: test plants; experiment: Post-emergence test, overall; assay type: in vivo; conditions: for kind of herbicidal action: Example 2
Experimental: as §1, §2, §3, §4, §5

[17] = tested on: Sinapis; experiment: Post-emergence test, Sinapis; assay type: in vivo; conditions: three weeks
Experimental: as §1, §2, §3, §4, §5

[18] = tested on: test plants; experiment: Pre-emergence test, overall; assay type: in vivo; conditions: Example 1
Experimental: as §1, §2, §3, §6, §7

[19] = tested on: Echinochloa; experiment: Pre-emergence test, Echinochloa; assay type: in vivo; conditions: three weeks
Experimental: as §1, §2, §3, §6, §7

[20] = tested on: Oats; experiment: Post-emergence test, oats; assay type: in vivo; conditions: three weeks
Experimental: as §1, §2, §3, §4, §5

[21] = tested on: Wheat; experiment: Post-emergence test, wheat; assay type: in vivo; conditions: three weeks
Experimental: as §1, §2, §3, §4, §5

[22] = tested on: Galinsoga; experiment: Post-emergence test, Galinsoga; assay type: in vivo; conditions: three weeks
Experimental: as §1, §2, §3, §4, §5

[23] = tested on: soybeans; experiment: Pre-emergence selectivity, soybeans; assay type: in vivo
[24] = tested on: Chenopodium; experiment: Pre-emergence test, Chenopodium; assay type: in vivo; conditions: three weeks
Experimental: as §1, §2, §3, §6, §7

[25] = tested on: dwarf beans; experiment: Defoliant test; assay type: in vivo; conditions: 0.05% active compound
Experimental: There is prepared, in the same manner as described in Example 1, an active compound preparation which contains 0.05% of
(1a") 3-methylthio-4-amino-6-phenyl-1,2,4-triazine-5-one.
A field of dwarf beans is sprayed with this preparation of the active compound so that the dwarf beans themselves are only just dripping wet.

C=CCNc1nnc(C(C)C)c(=O)n1N [Compound 179, 3-(α-allylamino)-4-amino-6-isopropyl-1,2,4-triazine-5-one]
degree of damage, Chenopodium ([1]; 0.6 Kg/hectare): 4-5 | degree of damage, Stellaria ([2]; 1.2 Kg/hectare): 4-5

CSc1nnc(C(C)C)c(=O)n1N=C1CCCC1 [Compound 223, 3-methylthio-4-(cyclopentylidene-amino)-6-isopropyl-1,2,4-triazine-5-one]
degree of damage, Oats ([3]; 1.25 kg/hectare): 4-5 | degree of damage, Wheat ([4]; 2.5 kg/hectare): 4-5 | degree of damage, Wheat ([4]; 5 kg/hectare): 4-5 | degree of damage, Cotton ([5]; 2.5 kg/hectare): 4-5 | degree of damage, Cotton ([5]; 5 kg/hectare): 4-5 | degree of damage, Sinapis ([6]; 1.25 kg/hectare): 4-5 | degree of damage, Cotton [7]: 4-5 | degree of damage, Chenopodium ([1]; 1.2 Kg/hectare): 4-5 | degree of damage, Echinochloa ([8]; 1.2 Kg/hectare): 4-5 | usefulness as herbicide [9]: similarly useful

CSc1nnc(C(C)(C)C)c(=O)n1N=Cc1ccccc1 [Compound 236]
fungicidal activity [10]: exhibits fungicidal activity, particularly against Alternaria | killing of nematodes [11]: kills nematoeds | selectivity [12]: selective as to cotton and tomatoes | effectiveness in growing crops [13]: effective in growing corn, potatoes, millet and peanuts | general properties ([9]; compared with compounds 221, 222, 223): same general properties | LD50 [14]: 1000 mg/kg | toxicity [15]: quite low

CSc1nnc(-c2ccccc2)c(=O)n1N=Cc1ccccn1 [Compound 28, 3-methylthio-4-(pyrid-2'-yl-methylidene-amino)-6-phenyl-1,2,4-triazine-5-one]
kind of herbicidal action [16]: pronouncedly selective-herbicidal action in snap beans and wheat

Nn1c(N2CCCCC2)nnc(-c2ccccc2)c1=O [Compound 25, 3-piperidino-4-amino-6-phenyl-1,2,4-triazine-5-one]
degree of damage, Sinapis ([17]; 10 Kg/hectare): 4-5 | degree of damage, Chenopodium ([1]; 10 Kg/hectare): 3-4

CSc1nnc(C(C)C)c(=O)n1NC(O)C(Cl)(Cl)Cl (stereo not drawn) [Compound 191, 3-methylthio-4-(β-trichloro-α-hydroxy-ethyl)-amino-6-isopropyl-1,2,4-triazine-5-one]
degree of damage, Sinapis ([17]; 1.2 Kg/hectare): 4-5

CSc1nnc(C2CCCCC2)c(=O)n1N [Compound 2, 3-methylthio-4-amino-6-cyclohexyl-1,2,4-triazine-5-one]
degree of damage, Oats ([3]; 1.25 kg/hectare): 4-5 | degree of damage, Wheat ([4]; 1.25 kg/hectare): 4-5 | kind of herbicidal action [18]: pronouncedly total-herbicidal action

C=CCNc1nnc(-c2ccccc2)c(=O)n1N [Compound 26, 3-allylamino-4-amino-6-phenyl-1,2,4-triazine-5-one]
degree of damage, Echinochloa ([19]; 5 kg/hectare): 4-5 | degree of damage, Chenopodium ([1]; 0.6 Kg/hectare): 4-5 | kind of herbicidal action [16]: pronouncedly selective-herbicidal action in wheat and carrots

CCNc1nnc(C(C)C)c(=O)n1N [Compound 177, 3-ethylamino-4-amino-6-isopropyl-1,2,4-triazine-5-one]
degree of damage, Oats ([3]; 2.5 kg/hectare): 4-5 | degree of damage, Sinapis ([6]; 5 kg/hectare): 4-5 | degree of damage, Oats ([20]; 2.4 Kg/hectare): 4-5 | degree of damage, Wheat ([21]; 2.4 Kg/hectare): 4-5 | degree of damage, Galinsoga ([22]; 2.4 Kg/hectare): 4-5

CSc1nnc(C(C)(C)C)c(=O)n1N=C1CCCCC1 [Compound 221, 3-methylthio-4-(cyclohexylidene-amino)-6-tert.-butyl-1,2,4-triazine-5-one]
degree of damage, Wheat ([4]; 1.25 kg/hectare): 4-5 | degree of damage, Wheat ([21]; 2.4 Kg/hectare): 4-5 | general herbicidal activity [16]: very good general herbicidal activity | selectivity [23]: selective for soybeans

CSc1nnc(C(C)C)c(=O)n1N=Cc1cccc([N+](=O)[O-])c1 [Compound 209, 3-methylthio-4-(3'-nitro-benzylidene-amino)-6-isopropyl-1,2,4-triazine-5-one]
degree of damage, Oats ([3]; 2.5 kg/hectare): 4-5 | degree of damage, Oats ([3]; 5 kg/hectare): 4-5 | degree of damage, Cotton ([5]; 1.25 kg/hectare): 4-5 | degree of damage, Cotton ([5]; 2.5 kg/hectare): 4-5 | degree of damage, Cotton ([5]; 5 kg/hectare): 4-5 | degree of damage, Chenopodium ([24]; 1.25 kg/hectare): 4-5 | degree of damage, Chenopodium ([24]; 2.5 kg/hectare): 4-5 | degree of damage, Oats ([20]; 2.4 Kg/hectare): 4-5

CCSc1nnc(-c2ccccc2)c(=O)n1N [Compound 3, 3-ethylthio-4-amino-6-phenyl-1,2,4-triazine-5-one]
kind of herbicidal action [18]: selectively herbicidal action in wheat and cotton

CNc1nnc(C(C)(C)C)c(=O)n1N=Cc1ccccc1 [Compound 230, 3-methylamino-4-(benzylidene-amino)-6-tert.-butyl-1,2,4-triazine-5-one]
degree of damage, Oats ([3]; 5 kg/hectare): 4-5 | degree of damage, Wheat ([4]; 5 kg/hectare): 4-5 | degree of damage, Cotton ([5]; 5 kg/hectare): 4-5 | degree of damage, Sinapis ([6]; 2.5 kg/hectare): 4-5 | degree of damage, Chenopodium ([24]; 2.5 kg/hectare): 4-5 | degree of damage, Echinochloa ([19]; 2.5 kg/hectare): 4-5 | degree of damage, Echinochloa ([19]; 5 kg/hectare): 4-5 | degree of damage, Oats ([20]; 2.4 Kg/hectare): 4-5 | degree of damage, Stellaria ([2]; 0.6 Kg/hectare): 4-5 | degree of damage, Echinochloa ([8]; 1.2 Kg/hectare): 4-5 | degree of damage, Echinochloa ([8]; 2.4 Kg/hectare): 4-5

CSc1nnc(C2CCCCO2)c(=O)n1N (stereo not drawn) [Compound 163, 3-methylthio-4-amino-6-(tetrahydropyran-2'-yl)-1,2,4-triazine-5-one]
degree of damage, Wheat ([21]; 0.6 Kg/hectare): 3-4 | degree of damage, Wheat ([21]; 1.2 Kg/hectare): 4-5 | degree of damage, Chenopodium ([1]; 0.6 Kg/hectare): 4-5 | degree of damage, Echinochloa ([8]; 2.4 Kg/hectare): 4-5

CSc1nnc(-c2ccccc2)c(=O)n1N [Compound 1a, 3-methylthio-4-amino-6-phenyl-1,2,4-triazine-5-one]
degree of damage, Echinochloa ([19]; 1.25 kg/hectare): 4-5 | degree of damage, Oats ([20]; 1.2 Kg/hectare): 4-5 | degree of damage, Oats ([20]; 2.4 Kg/hectare): 4-5 | harvesting of the beans [25]: quite considerably facilitated | drying up of leaves ([25]; after 8 days): completely dried up

CSc1nnc(C2CCCCC2)c(=O)n1NC(O)C(Cl)(Cl)Cl (stereo not drawn) [Compound 193, 3-methylthio-4-(β-trichloro-α-hydroxy-ethyl)-amino-6-cyclohexyl-1,2,4-triazine-5-one]
degree of damage, Oats ([3]; 2.5 kg/hectare): 4-5 | degree of damage, Wheat ([4]; 5 kg/hectare): 4-5 | degree of damage, Chenopodium ([24]; 2.5 kg/hectare): 4-5 | degree of damage, Oats ([20]; 1.2 Kg/hectare): 4-5 | degree of damage, Wheat ([21]; 2.4 Kg/hectare): 4-5

CSc1nnc(C2CCCCC2)c(=O)n1N=C1CCCCC1 [Compound 227, 3-methylthio-4-(cyclohexylidene-amino)-6-cyclohexyl-1,2,4-triazine-5-one]
degree of damage, Wheat ([4]; 2.5 kg/hectare): 4-5 | degree of damage, Wheat ([4]; 5 kg/hectare): 4-5 | degree of damage, Sinapis ([6]; 1.25 kg/hectare): 4-5 | degree of damage, Echinochloa ([19]; 1.25 kg/hectare): 4-5 | degree of damage, Wheat ([21]; 2.4 Kg/hectare): 4-5 | degree of damage, Chenopodium ([1]; 2.4 Kg/hectare): 4-5 | degree of damage, Stellaria ([2]; 2.4 Kg/hectare): 4-5

CCNc1nc(Cl)nc(NCC)n1 [A, 2,6-di-(ethylamino)-4-chloro-1,3,5-triazine, reference compound]
degree of damage, Echinochloa ([19]; 5 kg/hectare): 3-4 | degree of damage, Galinsoga ([22]; 0.1 % active compound): 4-5

CSc1nnc(C(C)(C)C)c(=O)n1N=Cc1ccco1 [Compound 222, 3-methylthio-4-(furfur-2'-ylidene-amino)-6-tert.-butyl-1,2,4-triazine-5-one]
degree of damage, Oats ([3]; 1.25 kg/hectare): 4-5 | degree of damage, Wheat ([4]; 5 kg/hectare): 4-5 | degree of damage, Cotton ([5]; 1.25 kg/hectare): 4-5 | degree of damage, Sinapis ([6]; 1.25 kg/hectare): 4-5 | degree of damage, Wheat ([21]; 2.4 Kg/hectare): 4-5 | degree of damage, Stellaria ([2]; 0.6 Kg/hectare): 4-5 | usefulness as herbicide [9]: similarly useful

CSc1nnc(C(C)C)c(=O)n1N [Compound 21, 3-methylthio-4-amino-6-isopropyl-1,2,4-triazine-5-one]
degree of damage, Wheat ([21]; 0.01 % active compound): 4-5 | kind of herbicidal action [16]: pronouncedly total-herbicidal action
